Data on eight compounds can be found in patent US9540646B2, “Cellular targets for HIV infection” (priority 2012, dated 2017).

Entries after “also recorded” stand apart in the source; their conditions may differ. Read-outs that look alike come from different tables or passages of the source.

In one data set the test system is HIVADA. In words: HIV replication in primary human macrophages, HIV p24 ELISA. Type of data set: cell-based, Human immunodeficiency virus-1 (HIV). The conditions noted are these: for inhibition at 100 µM: Human immunodeficiency virus 1, Macrophage. An excerpt: Monocyte isolation and macrophage culture: Human monocytes were isolated from leukopaks obtained from the New York Blood Center. Peripheral blood mononuclear cells (PBMCs) were isolated by differential centrifugation using a Ficoll gradient (GE Healthcare, Piscataway, N.J.) and CD14 positive cells were isolated from PBMCs using CD14 monoclonal antibodies that were then bound by magnetic nanoparticles and separated using a magnetic field (Stem Cell Technologies, Vancouver, BC, Canada). Isolated CD14 positive cells were cultured adherently for 6 days in the presence of 10 ng/ml macrophage-colony stimulating factor (PeproTech, Rocky Hill, N.J.) in RPMI 1640 with 10% FBS, 5% human AB serum, 1% P/S, and 10 mM HEPES to differentiate the cells into macrophages.
HIV replication: After 6 days in culture, macrophages in 48-well plates at a density of 10^5 cells per well were inoculated with 2-20 ng/ml HIVADA, 2 ng/ml HIVYU-2, or 0.2 ng/ml HIVBaL for 24 hours in the presence or absence of purinergic receptor inhibitors. 5 wells were inoculated per condition. After 24 hours, cells were washed with PBS and then cultured with media. Supernatants were collected and medium was changed every 24 hours until 7 days post inoculation (d.p.i.). When the inhibitors oATP, A-740003, MRS 2179, NF 279, BBG, or suramin, were used, they were added when the medium was changed every 24 hours. Viral replication was analyzed by HIV p24 ELISA (Advanced Bioscience Laboratories, Kensington, Md.) according to the manufacturer's instructions

Another data set deals with Macrophages. In words: Cell viability of macrophages, live/dead assay. Format: cell-based. The conditions noted are these: 100 μM, 24 hours. An excerpt:
Cells were imaged using a Zeiss AxioObserver.D1 with an LD Plan-Neofluar 20×/0.4 air objective lens. Images were collected at room temperature through a Zeiss AxioCam MRm camera using Axiovision software.

Data set [1] concerns β-lactamase containing HIVBaL. In words: HIV Entry Assay (β-lactamase / CCF2-AM) in primary human macrophages. Type of data set: cell-based, Human immunodeficiency virus-1 (HIV). The conditions noted are these: 100 μM; 4 hours; MOI 0.001-0.01; oATP N=5, others N=3. The protocol:
HIV Entry Assay: Primary human macrophages were cultured in black 96-well plates with a clear bottom (Corning Inc., Corning, N.Y.) at a density of 43,000 cells per well. After 7-8 days in culture, cells were inoculated with β-lactamase containing HIVBaL at a multiplicity of infection (MOI) of 0.01, 0.005, or 0.001 in the presence or absence of the purinergic receptor inhibitors oATP, NF 279, A-740003, or MRS 2179 for 4 hours. Beta-lactamase containing HIVBaL was generated as described previously (27). Briefly, HEK-293T cells were transfected using calcium phosphate with two plasmids, one containing the HIVBaL genome, pWT/BaL (NIH repository), the other containing β-lactamase fused to REV vpr, pMM310 (NIH repository). Cells were transfected for 16 hours and then supernatant was collected 24 and 48 hours following transfection. […] Viral stocks were generated by sucrose gradient purification of the transfection supernatants.
Alter viral inoculation of primary human macrophages, cells were washed with phenol red-free DMEM (Gibco) then loaded with CCF2-AM for 6 hours at room temperature using the GeneBLAzer In Vivo Detection Kit (Invitrogen, Carlsbad, Calif.). CCF2-AM fluoresces green due to an internal fluorescence resonance energy transfer, but when cleaved by β-lactamase, this interaction is lost and the molecule fluoresces blue. Cells were imaged using an Olympus IX70 with a Plan 10×/0.25 air objective lens. Images were collected at room temperature through an Olympus E-620LS camera attached to the microscope through an OM adapter MF-1. Images were collected directly onto a memory card and there was no image processing following image collection. Images were collected for 8 fields in 4 separate wells per condition and percentage of cells positive for viral entry was determined by counting the number of blue cells (cells that virus had entered) as compared to the total number of blue and green cells.

The target in data set [2] is T1, Panx1 hemichannels (Homo sapiens, UniProt Q96RD7). Put plainly: HIV-induced ethidium (Etd) dye uptake, time lapse fluorescence imaging, in PBMCs and CD4+ T lymphocytes. Format: cell-based. More on the design: endogenous in cells; host or cells: primary human PBMCs and purified CD4+ T lymphocytes from leukopacks (New York Blood Center). Conditions: 5 min and 72 h; for Etd uptake (rate) induced by the virus: PBMCs exposed to HIVADA, CD4+ T lymphocytes exposed to HIVADA, HIVBal or HIVLAI, Prob 500 μM, 10Panx1 200 μM, scrPanx1 200 μM, La3+ 200 μM, Cx43E2 1:500, siRNA 10 nM. The protocol:
Isolation of human PBMCs and CD4+ T lymphocytes. Anticoagulated blood was obtained from leukopacks obtained from the New York Blood Center as described before (16). PBMCs were isolated by under-layering with Ficoll-Paque (Amersham Bioscience, Uppsala, Sweden) according to the procedure described by the manufacturer. Purified PBMC used in these studies were ˜10% monocytes and ˜90% lymphocytes and other hematopoietic cells, as determined by incubation with premixed human CD45 and CD14 monoclonal antibodies conjugated to FITC and PE, respectively (1:50, Caltag Laboratories, Burlingame, Calif.), followed by fluorescence-activated cell sorter analysis (FACS) as we previously described (17). To obtain a pure population of CD4+ T lymphocytes, monocytes were removed from PBMCs by using CD14 coupled magnetic beads and subsequently CD4+ T lymphocytes were isolated with CD4 coupled magnetic beads (Stem Cell Technologies, Vancouver, BC, Canada).
HIV-infection and quantification of replication. Cell-free viral inocula were obtained from the National Institutes of Health AIDS Research and Reference Reagent Program. Three isolates were used: HIVADA, and HIVBal, two R5 isolates and HIVLAI, an X4 isolate, PBMCs and purified CD4+ T lymphocytes were isolated and activated with phytohemagglutinin (PHA; 5 μg/ml) plus interleukin (IL-2; 5%) in RPMI 1640 for 48 h in polypropylene tubes at a density of 2×10^6 […] PBMCs and CD4+ T lymphocytes were then infected by incubation for 24 h with viral stocks of HIVADA (20 ng p24/ml/1×10^6 cells), HIVLAI (20 ng p24/ml/1×10^6 cells) or HIVBal (0.001 MOI), washed thoroughly, resuspended in fresh medium, and maintained in polypropylene tubes. Uninfected control cells were activated with PHA plus IL-2 for 48 h, washed, and maintained in polypropylene tubes in fresh media without any virus. To determine the levels of HIV infection, the amount of HIV-p24 released into the medium was determined by ELISA (PerkinElmer, Boston, Mass.)
(§1) Dye uptake and time lapse fluorescence imaging. To characterize the functional state of Panx1 hemichannels, dye uptake experiments using ethidium (Etd) bromide were performed as previously described (18, 19). Cells were washed twice in Hank's balanced salt solution and then exposed to Locke's solution (containing: 154 mM NaCl, 5.4 mM KCl, 2.3 mM CaCl2, 5 mM HEPES and pH 7.4) with 5 μM Etd and time lapse microscopy was performed. Phase-contrast and fluorescence microscopy with time-lapse imaging were used to record cell appearance and fluorescence intensity changes in each condition. Fluorescence was recorded every 30 s. The NIH ImageJ program was used for off-line image analysis and fluorescence quantification. For data representation and calculation of Etd uptake slopes, the average of two independent background fluorescence intensity measurements (FB, expressed as arbitrary units, AU) was subtracted from fluorescence intensity′ in each cell (F1). Results of this calculation (F1-FB), for at least 20 cells, were averaged and plotted against time (expressed in minutes). Slopes were calculated using Microsoft Excel software and expressed as AU/min. Microscope and camera settings remained the same in all experiments. Dead cells were clearly identified during the time lapse microscopy due to their non specific Etd uptake (not inhibited by hemichannel blockers) and were not quantified.

The target of data set [3] is T1, Panx1 hemichannels. Put plainly: HIV-induced Etd uptake in CD4+ T lymphocytes by flow cytometry (FACS). Type of data set: cell-based. More on the design: endogenous in cells; host or cells: primary human PBMCs and purified CD4+ T lymphocytes from leukopacks (New York Blood Center). The conditions noted are these: HIVADA, 5 min and 72 h. The protocol:
Flow cytometry. To measure Etd uptake in CD4+ T cell populations FACS analysis was performed of cells under control conditions or after HIV exposure at several time points. Etd uptake experiments were performed in CD4+ lymphocytes (3-5×10^5), and after the respective time of Etd uptake, cells were fixed with 2% paraformaldehyde for 30 min at room temperature, incubated with 1% BSA in PBS for 30 min and stained with CD4 antibody for 30 min at 4° C. For analyses of Etd positive populations, 10,000 events were acquired on a BD FACS Canto II and analyzed using FlowJo (Ashland, Oreg.) software as we previously described (17, 20).

Data set [4] addresses T1, Panx1 hemichannels. Put plainly: Etd uptake in CD4+ T lymphocytes induced by chemokines or gp120. Type of data set: cell-based. More on the design: endogenous in cells; host or cells: primary human PBMCs and purified CD4+ T lymphocytes from leukopacks (New York Blood Center). Conditions: gp120 1 μg/ml. The method, then:
as §1

T1 sequence (Q96RD7 whole entry): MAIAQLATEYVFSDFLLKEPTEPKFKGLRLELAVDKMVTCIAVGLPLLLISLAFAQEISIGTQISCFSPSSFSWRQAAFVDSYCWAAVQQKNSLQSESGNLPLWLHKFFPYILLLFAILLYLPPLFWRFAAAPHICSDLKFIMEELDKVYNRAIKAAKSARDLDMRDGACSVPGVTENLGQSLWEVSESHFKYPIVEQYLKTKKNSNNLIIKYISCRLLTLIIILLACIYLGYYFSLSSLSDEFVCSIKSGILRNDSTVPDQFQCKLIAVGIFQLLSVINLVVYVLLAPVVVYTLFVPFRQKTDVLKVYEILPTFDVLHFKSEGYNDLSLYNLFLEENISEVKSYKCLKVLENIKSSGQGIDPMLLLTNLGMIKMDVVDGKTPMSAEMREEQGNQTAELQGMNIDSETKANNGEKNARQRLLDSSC

As for `COc1ccc(CC(=O)NC(N=C(NC#N)Nc2cccc3ncccc23)C(C)(C)C)cc1OC` (stereo not shown) [A-740003, N-[1-[[(Cyanoamino)(5-quinolinylamino)methylene]amino]-2,2-dimethylpropyl]-3,4-dimethoxybenzeneacetamide], in the data set with HIVADA (read-out: inhibition of HIV p24 production relative to HIV plus the vehicle DMSO), the inhibition at 100 µM lay in the range of 70 to 91%. For the same compound, the “cell viability (live/dead assay)” value in the data set on Macrophages was “did not alter cell viability; also recorded: None of the antagonist caused any decrease in cell viability”. In addition, in data set [1], the “reduction in viral entry (percentage of cells with viral entry) relative to HIV only” value is reported as “did not change”.

On to `[La+3]` [La^3+, Lanthanum], for which the “Etd uptake (rate) induced by the virus” value at Panx1 hemichannels [2] is recorded as “did not cause changes”; at Panx1 hemichannels [2] (listed as Lanthanum), “did not affect”.

As for `CNc1ncnc2c1ncn2[C@H]1C[C@H](OP(=O)([O-])[O-])[C@@H](COP(=O)([O-])[O-])O1.[Na+].[Na+].[Na+].[Na+]` [MRS 2179, 2′-deoxy-N6-methyladenosine 3′,5′-bisphosphate tetrasodium salt], the inhibition at 100 µM in the data set on HIVADA (100 μM, 3 independent donors, NF 279 on days 2-7 post inoculation, read-out: inhibition of HIV p24 production as compared to HIV infected cultures without the inhibitors) was 60 to 70%. The “cell viability (live/dead assay)” value in the data set on Macrophages is on record as “did not alter cell viability; also recorded: None of the antagonist caused any decrease in cell viability”. In data set [1], the “reduction in viral entry (percentage of cells with viral entry) relative to HIV only” value was “did not change”.

For `O=C(Nc1ccc(C(=O)Nc2ccc(C(=O)Nc3ccc(S(=O)(=O)[O-])c4cc(S(=O)(=O)[O-])cc(S(=O)(=O)[O-])c34)cc2)cc1)Nc1ccc(C(=O)Nc2ccc(C(=O)Nc3ccc(S(=O)(=O)[O-])c4cc(S(=O)(=O)[O-])cc(S(=O)(=O)[O-])c34)cc2)cc1.[Na+].[Na+].[Na+].[Na+].[Na+].[Na+]` [NF 279, 8,8′-[Carbonylbis(imino-4,1-phenylenecarbonylimino-4,1-phenylenecarbonylimino)]bis-1,3,5-naphthalenetrisulfonic acid hexasodium salt], the “inhibition of HIV p24 production as compared to HIV infected cultures without the inhibitors” value with HIVADA (100 μM, 3 independent donors, NF 279 on days 2-7 post inoculation) is 90-98%. In addition, the “cell viability (live/dead assay)” value in the data set on Macrophages is “did not alter cell viability; also recorded: None of the antagonist caused any decrease in cell viability”. Further, the “reduction in viral entry (percentage of cells with viral entry) relative to HIV only” value in data set [1] is reported as 98%.

For `Cc1ccc(-c2ccc3c(c2)C=C(C(=O)Nc2ccc(C[N+](C)(C)C4CCOCC4)cc2)CCC3)cc1.[Cl-]` [TAK-779], at Panx1 hemichannels [2] (CD4+ T lymphocytes, HIVADA and HIVBal, TAK-779 100 ng/ml), the “Etd uptake induced by R5 viruses” value is recorded as “reduced”.

Turning to `CCCN(CCC)S(=O)(=O)c1ccc(C(=O)O)cc1` [probenecid], the “Etd uptake (rate) induced by the virus” value at Panx1 hemichannels [2] is listed as “completely blocked; also recorded: completely reduced”. Further, the results for the “Etd uptake induced by the virus, analyzed by FACS” value on Panx1 hemichannels [3] and at Panx1 hemichannels [3] (listed as Probenecid) were “reduced Etd uptake” and “reduced to control conditions (100%)”, respectively. On Panx1 hemichannels [4] (5 min), the “gp120-induced Etd uptake, in presence of blockers” value is “inhibited”.

Consider `Cc1ccc(C(=O)Nc2ccc(S(=O)(=O)O)c3cc(S(=O)(=O)O)cc(S(=O)(=O)O)c23)cc1NC(=O)c1cccc(NC(=O)Nc2cccc(C(=O)Nc3cc(C(=O)Nc4ccc(S(=O)(=O)O)c5cc(S(=O)(=O)O)cc(S(=O)(=O)O)c45)ccc3C)c2)c1` [suramin], for which, in the data set on HIVADA (suramin, every time point tested, N=3 donors), the “inhibition of HIVADA replication” value is reported as 100%. The “cell viability (live/dead assay)” value with Macrophages is recorded as “None of the antagonist caused any decrease in cell viability; also recorded: without altering cell viability”.

On to “RANTES/CCL5: a physiological ligand for CCR5”, for which the “Etd uptake after single addition of chemokine or gp120” value in the data set with Panx1 hemichannels [4] (chemokines 100 ng/ml, time course) is “fast and extremely transient increase (only 5 min)”.
